Experimental data: US10752626B2, “Iso-citrate dehydrogenase (IDH) inhibitor” (SHANGHAI METON PHARMACEUTICAL CO., LTD, priority 2016, dated 2020)

Biological target: IDH1 R132C (Homo sapiens (Human), UniProt O75874, R132C)
Assay: Improved cell-based assay: D-2-HG in HT1080 cells over-expressing D-2-HG dehydrogenase
Details: 12 h
Description: The present disclosure also provides a cell based method for assaying IDH inhibition and selectivity of the compounds in human fibrosacoma cell line HT1080 and cholangiocarcinoma cell line HCCC 9810, which harbor endogenous heterozygous IDH1 R132C and R132H mutation respectively and accumulate D-2-HG Tumor derived IDH mutant lost its normal activity of producing α-KG and gained a new activity of producing D-2-HG D-2-HG is a metabolite specifically elevated in IDH mutated tumor samples.
By treating HT1080 and HCCC 9810 cells with an effective IDH inhibitor, the synthesis of D-2-HG is blocked, and D-2-HG concentration is decreased by the oxidation reaction catalyzed by D-2-HG dehydrogenase.
To perform a cell based IDH inhibitor assay, HT1080 and HCCC 9810 cells (or other cell lines harboring different IDH mutations) are cultured in DMEM supplemented with 10% FBS. The cells are treated with compounds of present disclosure at various different concentration. At various time points (between 4-24 hours) after the treatment, cell culture supernatants were removed and cells were washed with PBS for one or two times. Cell metabolites are extracted by adding 80% methanol (pre-chilled under −80° C.) in the cells, extract at 4° C. temperature for 60 min, centrifuged to remove any insoluble component. Metabolites (clear supernatant from the previous step) are lyophilized and reconstituted in pyridine containing 20 mg/ml O-methoxyamineHCl and are incubated at 70° C. for 40 minutes. After cooling down to room temperature, MTBSTFA (N-tert-Butyldimethylsilyl-N-methyltrifluoroacetamide, Sigma Aldrich) is added at a volume ratio of 4:7 (e.g., 20 μL MTBSTFA to 35 μL 20 mg/ml O-methoxyamineHCl solution) and derivation is performed at 70° C. for 30 minutes. The derived metabolites including D-2-HG are analyzed by Agilent 7890A-5750 GC/MS system. […] of the derived metabolite is injected into Agilent 7890A-5750 for D-2-HG concentration analysis. GC oven temperature is programmed from 140° C. to 260° C. at 10° C./min, from 260° C. to 310° C. at 8° C./min and hold at 310° C. for 5 min. The flow rate of carrier gas is 1 ml/min. The mass spectrometer is operated in the electron impact (EI) mode at 70 eV D-2-HG is normalized to endogenous glutamate.
The activity of IDHs in the presence of each compounds at different concentrations can be represented by relative D-2-HG concentration to negative control samples, and the IC50 value, the inhibition and selectivity for each compound can be evaluated.
The present disclosure also provides an improved cell-based assay for IDH inhibition and selectivity of the compounds, which involves stably over-expressing D-2-HG dehydrogenase in HT1080 and HCCC 9810 cells.
According to previous report, over expression of D-2-HG dehydrogenase decreases the half-life of D-2-HG in HT1080 cells (FIGS. 2A and 2B) [“D-2-hydroxyglutarate is essential for maintaining oncogenic property of mutant IDH-containing cancer cells but dispensable for cell growth”, Ma, S., et al., Oncotarget, (2015)], making the cells more sensitive to D-2-HG synthesis blockage by mutant IDH1 inhibitors. It will greatly increase the sensitivity and accurateness of this cell based assay. In the improved cell-based assay, all other steps are performed as disclosed in Test 6.
The D-2-HG inhibition activity of compounds was also assessed in the improved cell-based assay according to the method disclosed in Test 7 of the Biological evaluation section. HT1080 cells over-expressing D-2-HG dehydrogenase were cultured in 35 mm plate and treated with each of Compounds 1-37 at a concentration of 0.5 μM, 1 μM, 2.5 μM and 5 μM for 12 h, respectively, and the D-2-HG concentration was analysed. The inhibition ratio of D-2-HG in HT1080 cell by the exemplary Compounds 16, 21-24 and 31 at different concentrations were shown in Table 10.

Sequence of IDH1 R132C (O75874 2-414 R132C): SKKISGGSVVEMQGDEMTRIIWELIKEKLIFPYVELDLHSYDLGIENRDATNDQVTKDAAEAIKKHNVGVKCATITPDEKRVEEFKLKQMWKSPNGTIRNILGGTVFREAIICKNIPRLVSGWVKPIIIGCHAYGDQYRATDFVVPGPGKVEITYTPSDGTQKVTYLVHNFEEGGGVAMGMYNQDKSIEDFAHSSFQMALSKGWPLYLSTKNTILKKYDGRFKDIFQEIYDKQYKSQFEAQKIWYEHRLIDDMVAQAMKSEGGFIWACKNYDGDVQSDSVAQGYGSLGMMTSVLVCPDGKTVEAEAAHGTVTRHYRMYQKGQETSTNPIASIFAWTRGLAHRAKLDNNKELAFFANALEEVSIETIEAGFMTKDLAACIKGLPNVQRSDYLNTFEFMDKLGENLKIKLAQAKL

Compound	Inhibition ratio of D-2-HG in HT1080 cell (0.5 μM) [%]	Inhibition ratio of D-2-HG in HT1080 cell (1 μM) [%]	Inhibition ratio of D-2-HG in HT1080 cell (2.5 μM) [%]	Inhibition ratio of D-2-HG in HT1080 cell (5 μM) [%]
CCN1Cc2c(ccnc2N[C@@H](C)c2ccc(Oc3ccc(C)cc3)cc2)C1=O [Compound 16, (S)-2-ethyl-4-(1-(4-(p-tolyloxy)phenyl)ethylamino)-2,3-dihydro-1H-pyrrolo [3,4-c]pyridin-1-one]	51	60.2	67	82.2
CCN1Cc2c(ccnc2N[C@@H](C)c2ccc(Oc3ccccc3)c(F)c2)C1=O [Compound 23, (S)-2-ethyl-4-((1-(3-fluoro-4-phenoxyphenyl)ethyl)amino)-2,3-dihydro-1H-pyrrolo[3,4-c]pyridin-1-one]	12.5	30.7	68.3	76.7
